Test results published in patent publication US20120034193A1, “TREATMENT OF NEUROTROPHIC FACTOR MEDIATED DISORDERS” (priority 2009, published 2012).

Tests used:
Assay in all cases: Binding assay
Conditions in all cases: smilagenin 1 μM
[1] = target: Cholecystokinin CCK2 (CCKB) (Homo sapiens, UniProt P32239)
Method in brief: (§1)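 Tissue or cell homogenates carrying the receptor were exposed to a radiolabelled ligand of known concentration, with or without 1 μM test compound. Specific bound radioactivity after removing free ligand yielded percent inhibition; assay conditions and radioligand were target-dependent.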

[2] = system: Colchicine
Method in brief: as §1

[3] = target: Melanocortin MC3 (Homo sapiens, UniProt P41968)
Method in brief: as §1

[4] = target: Cannabinoid CB1 (Homo sapiens, UniProt P21554)
Method in brief: as §1

[5] = target: T1, Transporter, 5-hydroxytryptamine (SERT) (Homo sapiens, UniProt P31645)
T1 construct: host or cells: tissue or cell homogenate, not specified
Method in brief: as §1

[6] = target: Opiate δ (OP1, DOP) (Homo sapiens, UniProt P41143)
Method in brief: as §1

[7] = target: T2, Dopamine D1 (Homo sapiens, UniProt P21728)
T2 construct: host or cells: tissue or cell homogenate, not specified
Method in brief: as §1

[8] = target: Opiate κ (OP2, KOP) (Homo sapiens, UniProt P41145)
Opiate κ (OP2, KOP), sequence (P41145 whole entry): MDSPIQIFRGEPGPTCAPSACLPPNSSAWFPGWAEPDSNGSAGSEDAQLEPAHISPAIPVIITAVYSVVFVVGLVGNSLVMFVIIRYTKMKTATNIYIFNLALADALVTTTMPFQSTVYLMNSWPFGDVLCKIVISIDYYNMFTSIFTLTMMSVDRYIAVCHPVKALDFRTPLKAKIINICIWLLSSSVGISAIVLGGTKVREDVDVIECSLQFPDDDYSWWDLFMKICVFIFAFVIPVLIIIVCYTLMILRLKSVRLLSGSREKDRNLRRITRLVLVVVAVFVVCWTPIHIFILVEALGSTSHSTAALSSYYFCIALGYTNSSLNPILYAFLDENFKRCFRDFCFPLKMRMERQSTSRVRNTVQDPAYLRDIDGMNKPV
Method in brief: as §1

[9] = target: Prostanoid DP (Homo sapiens, UniProt Q13258)
Method in brief: as §1

[10] = target: Dopamine D4.2 (Homo sapiens, UniProt P21917, DEL265-296)
Method in brief: as §1

[11] = target: Aldosterone (Rattus norvegicus, UniProt P22199)
Aldosterone, sequence (P22199 whole entry): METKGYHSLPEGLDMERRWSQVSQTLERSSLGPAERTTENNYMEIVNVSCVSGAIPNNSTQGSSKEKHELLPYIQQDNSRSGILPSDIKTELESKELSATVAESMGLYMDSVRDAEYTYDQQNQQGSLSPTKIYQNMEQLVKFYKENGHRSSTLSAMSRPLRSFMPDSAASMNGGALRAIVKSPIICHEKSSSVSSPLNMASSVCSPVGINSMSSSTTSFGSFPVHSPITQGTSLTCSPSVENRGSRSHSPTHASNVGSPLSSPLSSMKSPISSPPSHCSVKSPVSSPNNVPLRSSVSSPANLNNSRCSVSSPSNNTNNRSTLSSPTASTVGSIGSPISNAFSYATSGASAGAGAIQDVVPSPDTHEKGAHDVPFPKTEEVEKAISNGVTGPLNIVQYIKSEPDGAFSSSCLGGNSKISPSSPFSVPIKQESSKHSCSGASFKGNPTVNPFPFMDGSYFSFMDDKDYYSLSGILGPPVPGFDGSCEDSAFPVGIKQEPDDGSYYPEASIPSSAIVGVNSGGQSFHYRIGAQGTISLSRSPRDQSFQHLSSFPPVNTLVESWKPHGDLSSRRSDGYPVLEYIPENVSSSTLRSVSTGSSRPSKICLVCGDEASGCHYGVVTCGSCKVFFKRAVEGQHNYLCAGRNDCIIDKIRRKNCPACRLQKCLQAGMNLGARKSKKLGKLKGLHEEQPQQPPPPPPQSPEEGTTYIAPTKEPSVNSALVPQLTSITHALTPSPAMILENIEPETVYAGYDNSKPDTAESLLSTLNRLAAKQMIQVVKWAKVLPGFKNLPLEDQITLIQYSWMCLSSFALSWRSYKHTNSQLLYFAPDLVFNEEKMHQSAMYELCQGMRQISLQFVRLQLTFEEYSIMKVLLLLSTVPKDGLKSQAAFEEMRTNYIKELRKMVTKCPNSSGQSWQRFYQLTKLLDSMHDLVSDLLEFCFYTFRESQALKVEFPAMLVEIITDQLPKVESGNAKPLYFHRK
Method in brief: as §1

[12] = target: Tachykinin NK2 (Homo sapiens, UniProt P21452)
Method in brief: as §1

[13] = target: Adensonine A1 (Homo sapiens, UniProt P30542)
Method in brief: as §1

[14] = target: Retanoid X Receptor RXRα (Homo sapiens, UniProt P19793)
Retanoid X Receptor RXRα, sequence (P19793 whole entry): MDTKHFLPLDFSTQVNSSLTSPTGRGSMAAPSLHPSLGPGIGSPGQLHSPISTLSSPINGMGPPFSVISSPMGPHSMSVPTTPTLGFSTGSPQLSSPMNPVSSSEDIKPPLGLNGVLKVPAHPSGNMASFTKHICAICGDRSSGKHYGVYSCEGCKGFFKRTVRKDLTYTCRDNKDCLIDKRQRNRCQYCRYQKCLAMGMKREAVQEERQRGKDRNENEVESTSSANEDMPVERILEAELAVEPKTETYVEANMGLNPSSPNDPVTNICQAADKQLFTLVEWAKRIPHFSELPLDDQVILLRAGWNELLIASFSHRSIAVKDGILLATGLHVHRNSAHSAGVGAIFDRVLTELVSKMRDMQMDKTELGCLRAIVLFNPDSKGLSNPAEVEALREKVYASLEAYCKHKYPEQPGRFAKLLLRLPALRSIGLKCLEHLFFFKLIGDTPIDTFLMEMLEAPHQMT
Method in brief: as §1

[15] = target: Corticotropin Releasing Factor (CRF1) (Homo sapiens, UniProt P34998)
Corticotropin Releasing Factor (CRF1), sequence (P34998 24-415): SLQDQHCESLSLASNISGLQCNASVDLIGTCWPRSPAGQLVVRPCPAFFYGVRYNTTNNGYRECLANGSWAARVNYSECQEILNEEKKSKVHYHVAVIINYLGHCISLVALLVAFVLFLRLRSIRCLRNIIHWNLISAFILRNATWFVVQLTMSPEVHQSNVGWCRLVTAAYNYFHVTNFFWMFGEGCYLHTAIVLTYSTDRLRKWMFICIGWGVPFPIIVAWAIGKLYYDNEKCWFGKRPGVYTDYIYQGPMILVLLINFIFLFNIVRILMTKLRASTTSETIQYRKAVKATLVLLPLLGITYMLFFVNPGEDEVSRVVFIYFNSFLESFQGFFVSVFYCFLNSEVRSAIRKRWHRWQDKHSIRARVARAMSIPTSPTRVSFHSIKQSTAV
Method in brief: as §1

[16] = target: T3, Oestrogen (Erβ) (Homo sapiens, UniProt Q92731)
T3 construct: host or cells: tissue or cell homogenate (not specified)
Method in brief: as §1

[17] = target: T4, Histamine H2 (Homo sapiens, UniProt P25021)
T4 construct: host or cells: tissue or cell homogenate (not specified)
Method in brief: as §1

[18] = target: Angiotensin AT1 (Homo sapiens, UniProt P30556)
Method in brief: as §1

[19] = target: Neuropeptide Y Y1 (Homo sapiens, UniProt P25929)
Neuropeptide Y Y1, sequence (P25929 whole entry): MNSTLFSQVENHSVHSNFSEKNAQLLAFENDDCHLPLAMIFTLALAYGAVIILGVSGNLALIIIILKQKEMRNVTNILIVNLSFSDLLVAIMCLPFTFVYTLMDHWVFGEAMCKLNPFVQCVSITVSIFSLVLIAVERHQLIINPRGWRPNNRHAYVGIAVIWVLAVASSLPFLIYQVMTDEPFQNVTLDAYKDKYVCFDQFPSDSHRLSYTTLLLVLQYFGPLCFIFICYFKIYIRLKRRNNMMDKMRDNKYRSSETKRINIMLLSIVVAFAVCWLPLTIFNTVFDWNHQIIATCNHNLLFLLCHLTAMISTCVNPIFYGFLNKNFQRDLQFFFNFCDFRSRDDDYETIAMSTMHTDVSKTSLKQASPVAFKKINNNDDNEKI
Method in brief: as §1

[20] = target: Somatostatin sst4 (Homo sapiens, UniProt P31391)
Method in brief: as §1

[21] = target: T5, Histamine H1 (Homo sapiens, UniProt P35367)
T5 construct: host or cells: tissue or cell homogenate (not specified)
Method in brief: as §1

[22] = target: Adensonine A3 (Homo sapiens, UniProt P0DMS8)
Adensonine A3, sequence (P0DMS8 whole entry): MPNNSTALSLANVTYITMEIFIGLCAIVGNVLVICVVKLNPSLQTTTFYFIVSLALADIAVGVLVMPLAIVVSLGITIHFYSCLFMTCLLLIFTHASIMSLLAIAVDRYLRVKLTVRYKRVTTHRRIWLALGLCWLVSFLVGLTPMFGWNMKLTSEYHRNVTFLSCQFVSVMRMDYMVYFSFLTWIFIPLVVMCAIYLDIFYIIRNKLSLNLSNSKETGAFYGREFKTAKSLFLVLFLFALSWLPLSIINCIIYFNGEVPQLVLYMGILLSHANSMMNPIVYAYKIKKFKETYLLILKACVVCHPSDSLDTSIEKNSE
Method in brief: as §1

[23] = target: T6, Transporter, Norepinephrine (NET) (Homo sapiens, UniProt P23975)
T6 construct: host or cells: tissue or cell homogenate, not specified
Method in brief: as §1

[24] = target: Adrenergic α1B (Rattus norvegicus, UniProt P15823)
Method in brief: as §1

[25] = target: Potassium Channel HERG (Homo sapiens, UniProt Q12809)
Method in brief: as §1

[26] = target: T7, Muscarinic M3 (Homo sapiens, UniProt P20309)
T7 construct: host or cells: tissue or cell homogenate, not specified
Method in brief: as §1

[27] = target: Somatostatin sst5 (Homo sapiens, UniProt P35346)
Method in brief: as §1

[28] = target: Chemokine CCR1 (Homo sapiens, UniProt P32246)
Chemokine CCR1, sequence (P32246 whole entry): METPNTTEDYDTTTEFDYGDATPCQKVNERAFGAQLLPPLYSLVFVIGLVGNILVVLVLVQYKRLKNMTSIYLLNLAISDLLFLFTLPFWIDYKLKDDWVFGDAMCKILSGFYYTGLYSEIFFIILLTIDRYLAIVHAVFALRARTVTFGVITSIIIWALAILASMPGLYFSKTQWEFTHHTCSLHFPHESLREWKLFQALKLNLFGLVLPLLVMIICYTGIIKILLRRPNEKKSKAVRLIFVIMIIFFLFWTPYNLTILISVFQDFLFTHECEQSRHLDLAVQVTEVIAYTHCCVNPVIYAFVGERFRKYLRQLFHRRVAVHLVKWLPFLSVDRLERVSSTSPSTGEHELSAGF
Method in brief: as §1

[29] = target: Leukotriene, Cysteinyl CysLT2 (Homo sapiens, UniProt Q9NS75)
Leukotriene, Cysteinyl CysLT2, sequence (Q9NS75 whole entry): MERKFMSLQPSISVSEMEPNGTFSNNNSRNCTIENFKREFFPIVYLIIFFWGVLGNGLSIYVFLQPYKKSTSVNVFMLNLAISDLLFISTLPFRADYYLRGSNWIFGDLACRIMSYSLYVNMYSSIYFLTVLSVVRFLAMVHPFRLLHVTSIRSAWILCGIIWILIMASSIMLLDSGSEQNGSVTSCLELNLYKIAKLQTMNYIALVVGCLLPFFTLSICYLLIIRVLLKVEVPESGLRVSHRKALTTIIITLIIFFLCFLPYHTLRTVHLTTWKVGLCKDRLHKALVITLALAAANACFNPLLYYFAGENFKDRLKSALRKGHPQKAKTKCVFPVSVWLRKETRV
Method in brief: as §1

[30] = target: Histamine H4 (Homo sapiens, UniProt Q9H3N8)
Method in brief: as §1

[31] = target: Somatostatin sst3 (Homo sapiens, UniProt P32745)
Method in brief: as §1

[32] = target: T8, Erythropoietin EPOR (Homo sapiens, UniProt P19235)
T8 construct: host or cells: tissue or cell homogenate (not specified)
Method in brief: as §1

[33] = target: Bombesin BB1 (Homo sapiens, UniProt P28336)
Method in brief: as §1

[34] = target: Bradykinin B2 (Homo sapiens, UniProt P30411)
Method in brief: as §1

[35] = target: Adrenergic β1 (Homo sapiens, UniProt P08588)
Adrenergic β1, sequence (P08588 whole entry): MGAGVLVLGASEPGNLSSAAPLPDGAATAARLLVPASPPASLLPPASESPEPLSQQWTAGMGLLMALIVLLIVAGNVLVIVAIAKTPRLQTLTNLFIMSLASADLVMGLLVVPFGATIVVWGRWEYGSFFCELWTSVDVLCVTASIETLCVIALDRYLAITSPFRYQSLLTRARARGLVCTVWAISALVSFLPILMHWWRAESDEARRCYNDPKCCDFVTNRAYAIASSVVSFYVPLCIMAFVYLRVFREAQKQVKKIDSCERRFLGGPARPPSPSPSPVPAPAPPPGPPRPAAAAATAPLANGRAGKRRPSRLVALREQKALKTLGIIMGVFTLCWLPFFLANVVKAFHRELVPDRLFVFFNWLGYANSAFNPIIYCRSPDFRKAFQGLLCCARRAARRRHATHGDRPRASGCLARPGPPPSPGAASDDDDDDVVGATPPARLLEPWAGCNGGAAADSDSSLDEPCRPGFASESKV
Method in brief: as §1

[36] = target: Chemokine CXCR1 (IL-8RB) (Homo sapiens, UniProt P25025)
Chemokine CXCR1 (IL-8RB), sequence (P25025 whole entry): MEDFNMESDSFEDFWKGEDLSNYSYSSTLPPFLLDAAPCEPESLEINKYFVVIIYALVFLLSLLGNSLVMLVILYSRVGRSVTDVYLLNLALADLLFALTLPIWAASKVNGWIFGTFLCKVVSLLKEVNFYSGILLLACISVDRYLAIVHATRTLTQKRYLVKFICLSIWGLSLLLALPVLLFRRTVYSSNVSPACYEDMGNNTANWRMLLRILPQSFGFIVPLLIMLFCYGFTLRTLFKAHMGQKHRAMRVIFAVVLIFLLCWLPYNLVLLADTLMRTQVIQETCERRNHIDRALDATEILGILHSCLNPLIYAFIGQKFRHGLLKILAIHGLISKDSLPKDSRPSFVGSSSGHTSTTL
Method in brief: as §1

[37] = target: T9, Histamine H3 (Homo sapiens, UniProt Q9Y5N1)
T9 construct: host or cells: tissue or cell homogenate (not specified)
Method in brief: as §1

Cholecystokinin CCK2 (CCKB), sequence (P32239 whole entry): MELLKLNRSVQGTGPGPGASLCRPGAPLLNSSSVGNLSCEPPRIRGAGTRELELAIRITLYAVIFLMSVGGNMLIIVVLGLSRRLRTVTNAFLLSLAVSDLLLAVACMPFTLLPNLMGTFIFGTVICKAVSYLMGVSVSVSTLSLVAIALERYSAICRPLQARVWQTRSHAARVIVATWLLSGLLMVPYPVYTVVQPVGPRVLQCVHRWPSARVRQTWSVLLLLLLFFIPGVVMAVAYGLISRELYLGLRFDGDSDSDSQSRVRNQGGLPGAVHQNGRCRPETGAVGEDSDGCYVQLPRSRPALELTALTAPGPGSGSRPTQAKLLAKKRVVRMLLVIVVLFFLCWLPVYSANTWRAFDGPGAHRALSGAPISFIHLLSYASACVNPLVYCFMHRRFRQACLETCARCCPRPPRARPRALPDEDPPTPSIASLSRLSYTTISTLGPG

Compound: C[C@@H]1CC[C@@]2(OC1)O[C@H]1C[C@H]3[C@@H]4CC[C@@H]5C[C@@H](O)CC[C@]5(C)[C@H]4CC[C@]3(C)[C@H]1[C@@H]2C [Smilagenin, smilagenin]
- Effect (%) [1]: NS (NS = No significant response. Significance was taken as ≧30% stimulation or inhibition)
- Effect (%) [2]: NS (NS = No significant response. Significance was taken as ≧30% stimulation or inhibition)
- Effect (%) [3]: NS (NS = No significant response. Significance was taken as ≧30% stimulation or inhibition)
- Effect (%) [4]: NS (NS = No significant response. Significance was taken as ≧30% stimulation or inhibition)
- Effect (%) [5]: NS (NS = No significant response. Significance was taken as ≧30% stimulation or inhibition)
- Effect (%) [6]: NS (NS = No significant response. Significance was taken as ≧30% stimulation or inhibition)
- Effect (%) [7]: NS (NS = No significant response. Significance was taken as ≧30% stimulation or inhibition)
- Effect (%) [8]: NS (NS = No significant response. Significance was taken as ≧30% stimulation or inhibition)
- Effect (%) [9]: NS (NS = No significant response. Significance was taken as ≧30% stimulation or inhibition)
- Effect (%) [10]: NS (NS = No significant response. Significance was taken as ≧30% stimulation or inhibition)
- Effect (%) [11]: NS (NS = No significant response. Significance was taken as ≧30% stimulation or inhibition)
- Effect (%) [12]: NS (NS = No significant response. Significance was taken as ≧30% stimulation or inhibition)
- Effect (%) [13]: NS (NS = No significant response. Significance was taken as ≧30% stimulation or inhibition)
- Effect (%) [14]: NS (NS = No significant response. Significance was taken as ≧30% stimulation or inhibition)
- Effect (%) [15]: NS (NS = No significant response. Significance was taken as ≧30% stimulation or inhibition)
- Effect (%) [16]: NS (NS = No significant response. Significance was taken as ≧30% stimulation or inhibition)
- Effect (%) [17]: NS (NS = No significant response. Significance was taken as ≧30% stimulation or inhibition)
- Effect (%) [18]: NS (NS = No significant response. Significance was taken as ≧30% stimulation or inhibition)
- Effect (%) [19]: NS (NS = No significant response. Significance was taken as ≧30% stimulation or inhibition)
- Effect (%) [20]: NS (NS = No significant response. Significance was taken as ≧30% stimulation or inhibition)
- Effect (%) [21]: NS (NS = No significant response. Significance was taken as ≧30% stimulation or inhibition)
- Effect (%) [22]: NS (NS = No significant response. Significance was taken as ≧30% stimulation or inhibition)
- Effect (%) [23]: NS (NS = No significant response. Significance was taken as ≧30% stimulation or inhibition)
- Effect (%) [24]: NS (NS = No significant response. Significance was taken as ≧30% stimulation or inhibition)
- Effect (%) [25]: NS (NS = No significant response. Significance was taken as ≧30% stimulation or inhibition)
- Effect (%) [26]: NS (NS = No significant response. Significance was taken as ≧30% stimulation or inhibition)
- Effect (%) [27]: NS (NS = No significant response. Significance was taken as ≧30% stimulation or inhibition)
- Effect (%) [28]: NS (NS = No significant response. Significance was taken as ≧30% stimulation or inhibition)
- Effect (%) [29]: NS (NS = No significant response. Significance was taken as ≧30% stimulation or inhibition)
- Effect (%) [30]: NS (NS = No significant response. Significance was taken as ≧30% stimulation or inhibition)
- Effect (%) [31]: NS (NS = No significant response. Significance was taken as ≧30% stimulation or inhibition)
- Effect (%) [32]: NS (NS = No significant response. Significance was taken as ≧30% stimulation or inhibition)
- Effect (%) [33]: NS (NS = No significant response. Significance was taken as ≧30% stimulation or inhibition)
- Effect (%) [34]: NS (NS = No significant response. Significance was taken as ≧30% stimulation or inhibition)
- Effect (%) [35]: NS (NS = No significant response. Significance was taken as ≧30% stimulation or inhibition)
- Effect (%) [36]: NS (NS = No significant response. Significance was taken as ≧30% stimulation or inhibition)
- Effect (%) [37]: NS (NS = No significant response. Significance was taken as ≧30% stimulation or inhibition)
